Legend:
[1] = Examples 1-3: TLC analysis of heated liquid preparations containing LNB; assay type: physicochemical
Method: Each of the heated samples was cooled to 15° C., and 1 μL was then spotted onto a silica gel thin layer chromatography (TLC) plate. The plate was developed using an 80% acetonitrile solvent, and was then immersed in a 5% sulfuric acid solution and colorized by heating in an oven. The existence or absence of decomposed or denatured products (N-acetylglucosamine dehydrate and galactose) and the amount of those decomposed or denatured products were evaluated visually to determine whether or not decomposition had occurred, and if so, the extent of that decomposition.
100 g of the LNB powder prepared in the above Production Example 1 was dissolved in 9.9 kg of purified water, and 0.1 M hydrochloric acid was added to the solution to adjust the pH to 4.5. The resulting aqueous solution was preheated for 3 minutes at 70° C. using a UHT sterilizer (manufactured by Morinaga Engineering Co., Ltd.), subsequently sterilized at 130° C. for 2 seconds, and then cooled to 15° C., yielding 10 kg of a liquid preparation containing LNB.
100 g of the LNB powder prepared in the above Production Example 1 was added to 9.9 kg of a commercially available orange juice (manufactured by Morinaga Milk Industry Co., Ltd.), and the resulting mixture was heated at 80° C. for 15 minutes and then cooled to 15° C. 100 mL aliquots of the juice were used to fill glass bottles, which were then sealed, yielding 100 bottles of orange juice containing LNB.
100 g of the LNB powder prepared in the above Production Example 1 was dissolved in 9.9 kg of purified water, and 0.1 M citric acid was added to the solution to adjust the pH to 5.0. The resulting aqueous solution was heated at 90° C. for 30 minutes, and then cooled to 15° C., yielding 10 kg of a liquid preparation containing LNB.

[2] = Test Example 3: effect of heating temperature and time on stability of LNB at various pH (2% LNB in buffer, TLC); assay type: physicochemical; set-up: key to extent of decomposition: −: no decomposition; ±: slight decomposition; +: partial decomposition; ++: majority decomposition; +++: almost total decomposition; conditions: for stability of LNB (decomposition by TLC): 65-120° C., 5-60 minutes
Method: Samples of the LNB powder prepared in the above Production Example 1 were dissolved at a concentration of 2% in a 0.1 M citrate buffer solution (pH: 5.5, 5.0, 4.0, 3.0) to prepare a series of liquid compositions containing LNB. Further, a portion of the LNB solution having a pH of 3.0 was used to prepare solutions having a pH of 2.0 or 1.0 by adding 1 M hydrochloric acid.
In a separate preparation, a sample of the LNB powder was dissolved at a concentration of 2% in a 0.1 M phosphate buffer having a pH of 7.0 to prepare a liquid composition containing LNB.
Sets containing the liquid compositions containing LNB at each pH value were each heated at a predetermined temperature (65, 70, 80, 90, 100 or 120° C.) for a predetermined period of time (5, 10, 20, 30 or 60 minutes).
Each of the heated liquid compositions containing LNB was cooled, and the same method as that described for Test Example 1 was used to determine whether or not decomposition had occurred, and if so, the extent of that decomposition. Based on the results, the extent of decomposition was evaluated against the criteria listed below.
• − no decomposition • ± slight decomposition • + partial decomposition • ++ majority decomposition • +++ almost total decomposition 2) Test Results: […]

Structure (SMILES): CC(=O)N[C@H]1C(O)O[C@H](CO)[C@@H](O)[C@@H]1O[C@@H]1O[C@H](CO)[C@H](O)[C@H](O)[C@H]1O (stereo partly drawn) [LNB, Lacto-N-biose]
- decomposition of LNB (TLC) ([1]; Example 1: aqueous solution pH 4.5, 70° C. for 3 minutes, then 130° C. for 2 seconds): had not decomposed
- decomposition of LNB (TLC) ([1]; Example 2: orange juice pH 4.51, 80° C. for 15 minutes): had not decomposed
- decomposition of LNB (TLC) ([1]; Example 3: aqueous solution pH 5.0 (citric acid), 90° C. for 30 minutes): had not decomposed
- extent of decomposition ([2]; pH 4.0, 65° C., 5 minutes): −
- extent of decomposition ([2]; pH 4.0, 65° C., 10 minutes): −
- extent of decomposition ([2]; pH 4.0, 65° C., 20 minutes): −
- extent of decomposition ([2]; pH 4.0, 65° C., 30 minutes): −
- extent of decomposition ([2]; pH 4.0, 65° C., 60 minutes): −
- extent of decomposition ([2]; pH 4.0, 70° C., 5 minutes): −
- extent of decomposition ([2]; pH 4.0, 70° C., 10 minutes): −
- extent of decomposition ([2]; pH 4.0, 70° C., 20 minutes): −
- extent of decomposition ([2]; pH 4.0, 70° C., 30 minutes): −
- extent of decomposition ([2]; pH 4.0, 70° C., 60 minutes): −
- extent of decomposition ([2]; pH 4.0, 80° C., 5 minutes): −
- extent of decomposition ([2]; pH 4.0, 80° C., 10 minutes): −
- extent of decomposition ([2]; pH 4.0, 80° C., 20 minutes): −
- extent of decomposition ([2]; pH 4.0, 80° C., 30 minutes): −
- extent of decomposition ([2]; pH 4.0, 80° C., 60 minutes): −
- extent of decomposition ([2]; pH 4.0, 90° C., 5 minutes): −
- extent of decomposition ([2]; pH 4.0, 90° C., 10 minutes): −
- extent of decomposition ([2]; pH 4.0, 90° C., 20 minutes): −
- extent of decomposition ([2]; pH 4.0, 90° C., 30 minutes): −
- extent of decomposition ([2]; pH 4.0, 90° C., 60 minutes): −
- extent of decomposition ([2]; pH 4.0, 100° C., 5 minutes): −
- extent of decomposition ([2]; pH 4.0, 100° C., 10 minutes): −
- extent of decomposition ([2]; pH 4.0, 100° C., 20 minutes): −
- extent of decomposition ([2]; pH 4.0, 100° C., 30 minutes): −
- extent of decomposition ([2]; pH 4.0, 100° C., 60 minutes): −
- extent of decomposition ([2]; pH 4.0, 120° C., 5 minutes): −
- extent of decomposition ([2]; pH 4.0, 120° C., 10 minutes): −
- extent of decomposition ([2]; pH 4.0, 120° C., 20 minutes): −
- extent of decomposition ([2]; pH 4.0, 120° C., 30 minutes): −
- extent of decomposition ([2]; pH 4.0, 120° C., 60 minutes): −
- extent of decomposition ([2]; pH 5.0, 65° C., 5 minutes): −
- extent of decomposition ([2]; pH 5.0, 65° C., 10 minutes): −
- extent of decomposition ([2]; pH 5.0, 65° C., 20 minutes): −
- extent of decomposition ([2]; pH 5.0, 65° C., 30 minutes): −
- extent of decomposition ([2]; pH 5.0, 65° C., 60 minutes): −
- extent of decomposition ([2]; pH 5.0, 70° C., 5 minutes): −
- extent of decomposition ([2]; pH 5.0, 70° C., 10 minutes): −
- extent of decomposition ([2]; pH 5.0, 70° C., 20 minutes): −
- extent of decomposition ([2]; pH 5.0, 70° C., 30 minutes): −
- extent of decomposition ([2]; pH 5.0, 70° C., 60 minutes): −
- extent of decomposition ([2]; pH 5.0, 80° C., 5 minutes): −
- extent of decomposition ([2]; pH 5.0, 80° C., 10 minutes): −
- extent of decomposition ([2]; pH 5.0, 80° C., 20 minutes): −
- extent of decomposition ([2]; pH 5.0, 80° C., 30 minutes): −
- extent of decomposition ([2]; pH 5.0, 80° C., 60 minutes): −
- extent of decomposition ([2]; pH 5.0, 90° C., 5 minutes): −
- extent of decomposition ([2]; pH 5.0, 90° C., 10 minutes): −
- extent of decomposition ([2]; pH 5.0, 90° C., 20 minutes): −
- extent of decomposition ([2]; pH 5.0, 90° C., 30 minutes): −
- extent of decomposition ([2]; pH 5.0, 90° C., 60 minutes): −
- extent of decomposition ([2]; pH 5.0, 100° C., 5 minutes): −
- extent of decomposition ([2]; pH 5.0, 100° C., 10 minutes): −
- extent of decomposition ([2]; pH 5.0, 100° C., 20 minutes): −
- extent of decomposition ([2]; pH 5.0, 100° C., 30 minutes): −
- extent of decomposition ([2]; pH 5.0, 100° C., 60 minutes): ±
- extent of decomposition ([2]; pH 5.0, 120° C., 5 minutes): −
- extent of decomposition ([2]; pH 5.0, 120° C., 10 minutes): −
- extent of decomposition ([2]; pH 5.0, 120° C., 20 minutes): ±
- extent of decomposition ([2]; pH 5.0, 120° C., 30 minutes): ±
- extent of decomposition ([2]; pH 5.0, 120° C., 60 minutes): ±
- extent of decomposition ([2]; pH 5.5, 65° C., 5 minutes): −
- extent of decomposition ([2]; pH 5.5, 65° C., 10 minutes): −
- extent of decomposition ([2]; pH 5.5, 65° C., 20 minutes): −
- extent of decomposition ([2]; pH 5.5, 65° C., 30 minutes): −
- extent of decomposition ([2]; pH 5.5, 65° C., 60 minutes): −
- extent of decomposition ([2]; pH 5.5, 70° C., 5 minutes): −
- extent of decomposition ([2]; pH 5.5, 70° C., 10 minutes): −
- extent of decomposition ([2]; pH 5.5, 70° C., 20 minutes): −
- extent of decomposition ([2]; pH 5.5, 70° C., 30 minutes): −
- extent of decomposition ([2]; pH 5.5, 70° C., 60 minutes): −
- extent of decomposition ([2]; pH 5.5, 80° C., 5 minutes): −
- extent of decomposition ([2]; pH 5.5, 80° C., 10 minutes): −
- extent of decomposition ([2]; pH 5.5, 80° C., 20 minutes): −
- extent of decomposition ([2]; pH 5.5, 80° C., 30 minutes): −
- extent of decomposition ([2]; pH 5.5, 80° C., 60 minutes): −
- extent of decomposition ([2]; pH 5.5, 90° C., 5 minutes): −
- extent of decomposition ([2]; pH 5.5, 90° C., 10 minutes): −
- extent of decomposition ([2]; pH 5.5, 90° C., 20 minutes): −
- extent of decomposition ([2]; pH 5.5, 90° C., 30 minutes): −
- extent of decomposition ([2]; pH 5.5, 90° C., 60 minutes): ±
- extent of decomposition ([2]; pH 5.5, 100° C., 5 minutes): −
- extent of decomposition ([2]; pH 5.5, 100° C., 10 minutes): −
- extent of decomposition ([2]; pH 5.5, 100° C., 20 minutes): −
- extent of decomposition ([2]; pH 5.5, 100° C., 30 minutes): ±
- extent of decomposition ([2]; pH 5.5, 100° C., 60 minutes): +
- extent of decomposition ([2]; pH 5.5, 120° C., 5 minutes): −
- extent of decomposition ([2]; pH 5.5, 120° C., 10 minutes): ±
- extent of decomposition ([2]; pH 5.5, 120° C., 20 minutes): +
- extent of decomposition ([2]; pH 5.5, 120° C., 30 minutes): +
- extent of decomposition ([2]; pH 5.5, 120° C., 60 minutes): +
- extent of decomposition ([2]; pH 7.0, 100° C., 5 minutes): +
- extent of decomposition ([2]; pH 7.0, 100° C., 10 minutes): +
- extent of decomposition ([2]; pH 7.0, 100° C., 20 minutes): ++
- extent of decomposition ([2]; pH 7.0, 100° C., 30 minutes): ++
- extent of decomposition ([2]; pH 7.0, 100° C., 60 minutes): +++
- extent of decomposition ([2]; pH 7.0, 120° C., 5 minutes): ++
- extent of decomposition ([2]; pH 7.0, 120° C., 10 minutes): +++
- extent of decomposition ([2]; pH 7.0, 120° C., 20 minutes): +++
- extent of decomposition ([2]; pH 7.0, 120° C., 30 minutes): +++
- extent of decomposition ([2]; pH 7.0, 120° C., 60 minutes): +++
- stability of LNB (decomposition by TLC) ([2]; pH 7.0 or 1.0): decomposition occurred even after heating for 5 minutes
- stability of LNB (decomposition by TLC) ([2]; pH not less than 2.0 to not more than 5.5): stable and underwent almost no decomposition

Source: patent US9060529B2, “Method for treatment of lacto-N-biose-containing solution” (Morinaga Milk Industry Co., Ltd., priority 2010, dated 2015)
